# Patent publication US20180332847A1, “ANTIMICROBIAL METAL CARBOXYLATE-BENZISOTHIAZOLINONE MIXTURES” (Troy Corporation, priority 2017, published 2018)
# Where “and” joins values, the source holds several entries; their conditions need not be identical. Equal entries are not always repeated.
# Legend:
# Assay type in all cases: cell-based
# Candida albicans = test: Minimum Inhibitory Concentration (MIC) by spiral plater / spiral gradient endpoint against Candida albicans
# Method: (§1) Synergistic Index=Qa/QA+Qb/QB [Equation No. 1] • where Qa=the quantity of component A used in a binary mixture that gives the desired effect • QA=the quantity of component A which when used alone gives the desired effect • Qb=the quantity of component B used in a binary mixture that gives the desired effect • QB=the quantity of component B which when used alone gives the desired effect
# (§2) Minimum Inhibitory Concentration (“MIC”) for each of the antimicrobial compositions was determined against a test microbe, which in this case was a spore suspension of the fungus Alternaria alternata, with the aid of an Autoplate 4000 spiral plater that is commercially available from Spiral Biotech, Inc., Norwood, Mass., and its accompanying spiral gradient endpoint software (hereinafter referred to as “the SGE software”). The spiral plater automates the normal serial dilution method for determining MICs. Although the details of the SGE software are held confidentially by Spiral Biotech, Inc., they are believed to consistent with the principles set forth in “Measurement of MICs of antibacterial agents by spiral gradient endpoint compared with conventional dilution method” J. H. Paton, H. A. Holt, and M. J. Bywater—Int. J. Exp. Clin. Chemother, 1990.
# The spiral plater automatically applied 54.3 micro-liters of each antimicrobial composition of interest to the surface of 150 millimeter malt agar plates using an exponential application gradient. The concentration of the antimicrobial concentration was greatest near the center of the Petri plates and decreased toward the edges. Antimicrobial composition gradients were allowed to air dry at room temperature for 1 to 4 hours at 23° C. before inoculation with test microbe. Spiral gradient plates were inoculated by streaking with cotton swabs that had been soaked in test microbe spore suspension. Streaks were applied in a radial pattern, using a paper template generated by the SGE software to guide the application. Eight radii were inoculated per Petri plate. Each radius is considered as one replicated observation.
# Inoculated spiral gradient plates were incubated for 48 hours in an incubator at 28° C. Visible growth of the test microbe developed along the radial streaks and ended where the concentration of the antimicrobial composition was sufficient to prevent growth. This growth endpoint value (expressed in mm as measured from center point of the Petri plate) was used to calculate MIC for the mixture, expressed as parts per million.
# Utilizing the procedure described above in Example, Minimum Inhibitory Concentration (“MIC”) for each of the antimicrobial compositions was determined against a test microbe, which in this case was a spore suspension of the yeast Candida albicans., as described above in Example 1. Several antimicrobial compositions containing calcium gluconate, BIT, or both in water were investigated, as shown below in Table 3
# Utilizing the procedure described above in Example 1, Minimum Inhibitory Concentration (“MIC”) for each of the antimicrobial compositions was determined against a test microbe, which in this case was a spore suspension of the yeast Candida albicans. Several antimicrobial compositions containing calcium glycerate, BIT, or both in water were investigated, as shown below in Table 11.
# Utilizing the procedure described above in Example 1, Minimum Inhibitory Concentration (“MIC”) for antimicrobial compositions was determined against a test microbe, which in this case was a spore suspension of the yeast Candida albicans. Several antimicrobial compositions containing calcium glycerate, BIT, or both in water were investigated, as shown below in Table 23.
# Utilizing the procedure described above in Example 1, Minimum Inhibitory Concentration (“MIC”) for each of the antimicrobial compositions was determined against a test microbe, which in this case was a spore suspension of the fungus Candida Albicans.
# Klebsiella pneumoniae = test: Minimum Inhibitory Concentration (MIC) by spiral plater / spiral gradient endpoint against Klebsiella pneumoniae; settings: quantity of BIT used alone that gives the desired effect, calcium ethylhexanoate-BIT series
# Method: as §1
# Minimum Inhibitory Concentration (“MIC”) for each of the antimicrobial compositions was determined against a test microbe, which in this case was a spore suspension of the fungus Alternaria alternata, with the aid of an Autoplate 4000 spiral plater that is commercially available from Spiral Biotech, Inc., Norwood, Mass., and its accompanying spiral gradient endpoint software (hereinafter referred to as “the SGE software”). […]
# (§3) Inoculated spiral gradient plates were incubated for 48 hours in an incubator at 28° C. […] This growth endpoint value (expressed in mm as measured from center point of the Petri plate) was used to calculate MIC for the mixture, expressed as parts per million.
# Utilizing the procedure described above in Example 1, Minimum Inhibitory Concentration (“MIC”) for each of the antimicrobial compositions was determined against a test microbe, which in this case was a spore suspension of the bacteria Klebsiella pneumoniae. […]
# Escherichia coli = test: Minimum Inhibitory Concentration (MIC) by spiral plater / spiral gradient endpoint against Escherichia coli
# Method: as §1, §2
# The spiral plater automatically applied 54.3 micro-liters of each antimicrobial composition of interest to the surface of 150 millimeter malt agar plates using an exponential application gradient. The concentration of the antimicrobial concentration was greatest near the center of the Petri plates and decreased toward the edges. […]
# as §3
# Utilizing the experimental procedure described above in Example 1, the MIC against Escherichia coli of several antibacterial compositions containing zinc gluconate, BIT, or both in water were determined.
# Staphylococcus aureus = test: Minimum Inhibitory Concentration (MIC) by spiral plater / spiral gradient endpoint against Staphylococcus aureus
# [1] = system: mixed bacterial inoculum: Pseudomonas aeruginosa (ATCC #10145), Escherichia coli (ATCC #11229), Enterobacter aerogenes (ATCC #13048), Alcaligenes faecalis …; test: Two-part bacterial challenge of acrylic latex paint samples with a mixed inoculum (performance ratings); design: key to Performance Ratings Week 1, 1 Day / Performance Ratings Week 1, 2 Days / Performance Ratings Week 1, 8 Days / Performance Ratings Week 2, 1 Day / Performance Ratings Week 2, 2 Days / Performance Ratings Week 2, 8 Days: 0: No bacterial growth; 1: Trace of bacterial growth; 2: Light bacterial growth; 3: Moderate bacterial growth; 4: Heavy bacterial growth; settings: for Performance Ratings Week 1, 1 Day: Week 1, 1 Day after inoculation; for Performance Ratings Week 1, 2 Days: Week 1, 2 Days after inoculation; for Performance Ratings Week 1, 8 Days: Week 1, 8 Days after inoculation; for Performance Ratings Week 2, 1 Day: Week 2, 1 Day after inoculation; for Performance Ratings Week 2, 2 Days: Week 2, 2 Days after inoculation; for Performance Ratings Week 2, 8 Days: Week 2, 8 Days after inoculation
# Method: In order to quantify the antibacterial effectiveness of an antimicrobial composition of interest, samples were prepared by adding various amounts of the antimicrobial composition to identical volumes of a paint that contained no preservatives and was not contaminated by bacteria. In this case, the test sample was a white, aqueous-based, acrylic latex paint. The paint included an acrylic resin, and conventional additives such as surfactant, thickener, defoamer, and titanium oxide.
# The samples of the paint were subjected to a two-part challenge procedure and the sample that provided acceptable anti-bacterial protection with the lowest concentration of the antimicrobial composition was identified. Each part of the anti-bacterial challenge consisted of a 7-day test cycle. The parts were performed consecutively over 14 test days.
# Challenge testing was accomplished using a mixed bacterial inoculum as the contamination event. These bacteria are Pseudomonas aeruginosa (ATCC #10145), Escherichia coli (ATCC #11229), Enterobacter aerogenes (ATCC #13048), and Alcaligenes faecalis (ATCC #25094). To prepare the test inoculum, each type of bacteria was harvested separately in nutrient broth. Just before use in the challenge test, equal strengths of each bacterial culture were mixed to obtain an inoculum of approximately 10^8 colony forming units per milliliter (cfu/mL).
# After incubation, both control blanks and samples containing preservatives of interest were inoculated with the mixed inoculum to a final of 1.0 weight %. […]
# Performance ratings of 0, 1, 2, 3 or 4 for each inoculated paint sample were determined by visual inspection of the streak lines, according to the definitions set forth below in Table 25.
structure (smiles),measurement,setting,value
"O=c1[nH]sc2ccccc12 [BIT, 1,2-benzisothiazol-3(2H)-one]",QB,"Candida albicans; MIC of BIT alone for Candida albicans (average of Trials 1, 2), used for SI (zinc ethylhexanoate series)",19 ppm
same,QB,"Candida albicans; MIC of BIT alone for Candida albicans, used for SI (zinc glycerate series)",13 ppm and 16 ppm
same,QB,"Candida albicans; quantity of BIT used alone that gives the desired effect, calcium gluconate-BIT series, Candida albicans",23 ppm
same,QB,"Candida albicans; quantity of BIT used alone that gives the desired effect, calcium glycerate-BIT series, Candida albicans",85 ppm
same,ppm of BIT alone providing the same inhibition,"Candida albicans; zinc ethylhexanoate-BIT series, Candida albicans",19 ppm
same,ppm of BIT alone providing the same inhibition,"Candida albicans; zinc glycerate-BIT series, Candida albicans",13 ppm
same,QB,Klebsiella pneumoniae,27 ppm
same,QB,"Escherichia coli; MIC of BIT alone for Escherichia coli (average of Trials 1, 2), used for SI",136 ppm
same,ppm of BIT alone providing the same inhibition,"Escherichia coli; zinc gluconate-BIT series, Escherichia coli",136 ppm
same,QB,"Staphylococcus aureus; MIC of BIT alone for Staphylococcus aureus, used for SI",16 ppm
same,ppm of BIT alone providing the same inhibition,"Staphylococcus aureus; zinc glycerate-BIT series, Staphylococcus aureus",16 ppm
same,"Performance Ratings Week 1, 1 Day",[1]; 50 ppm in acrylic latex paint,4
same,"Performance Ratings Week 1, 2 Days",[1]; 50 ppm in acrylic latex paint,4
same,"Performance Ratings Week 1, 8 Days",[1]; 50 ppm in acrylic latex paint,4
same,"Performance Ratings Week 2, 1 Day",[1]; 50 ppm in acrylic latex paint,4
same,"Performance Ratings Week 2, 2 Days",[1]; 50 ppm in acrylic latex paint,4
same,"Performance Ratings Week 2, 8 Days",[1]; 50 ppm in acrylic latex paint,4
same,"Performance Ratings Week 1, 1 Day",[1]; 500 ppm in acrylic latex paint,4
same,"Performance Ratings Week 1, 2 Days",[1]; 500 ppm in acrylic latex paint,2
same,"Performance Ratings Week 1, 8 Days",[1]; 500 ppm in acrylic latex paint,0
same,"Performance Ratings Week 2, 1 Day",[1]; 500 ppm in acrylic latex paint,4
same,"Performance Ratings Week 2, 2 Days",[1]; 500 ppm in acrylic latex paint,4
same,"Performance Ratings Week 2, 8 Days",[1]; 500 ppm in acrylic latex paint,0
